Laboratory results: the NIST ThermoML archive (doi:10.1016/j.jct.2016.10.023)

Test: xn = mol fraction of the nth substance listed
Settings: Constant-volume piezometry

CCCCC [pentane] + CCCO
mass density [kg/m3]
Settings	Fluid (supercritical or subcritical phases)	Gas
518.15 K, 4877 kPa, x1 = 0.2	220.15	–
518.15 K, 4965 kPa, x1 = 0.2	259.26	–
518.15 K, 4994 kPa, x1 = 0.2	272.43	–
518.15 K, 5010 kPa, x1 = 0.2	290.61	–
523.15 K, 954 kPa, x1 = 0.5	–	15.52
523.15 K, 1314 kPa, x1 = 0.8	–	22.52
523.15 K, 1549 kPa, x1 = 0.2	–	24.93
523.15 K, 1732 kPa, x1 = 0.5	–	29.98
523.15 K, 1978 kPa, x1 = 0.8	–	36.69
523.15 K, 2284 kPa, x1 = 0.5	–	40.49
523.15 K, 2704 kPa, x1 = 0.5	–	51.09
523.15 K, 2890 kPa, x1 = 0.8	–	58.41
523.15 K, 3111 kPa, x1 = 0.2	–	53.01
523.15 K, 3416 kPa, x1 = 0.5	–	67.52
523.15 K, 3421 kPa, x1 = 0.8	–	73.79
523.15 K, 3614 kPa, x1 = 0.5	–	72.6
523.15 K, 3631 kPa, x1 = 0.9	83.38	–
523.15 K, 4037 kPa, x1 = 0.2	–	91.41
523.15 K, 4041 kPa, x1 = 0.5	–	88.91
523.15 K, 4261 kPa, x1 = 0.5	–	95.85
523.15 K, 4356 kPa, x1 = 0.8	106.4	–
523.15 K, 4459 kPa, x1 = 0.2	114.35	114.35
523.15 K, 4600 kPa, x1 = 0.9	123.35	–
523.15 K, 4817 kPa, x1 = 0.9	134.12	–
523.15 K, 4864 kPa, x1 = 0.2	150.34	–
523.15 K, 4871 kPa, x1 = 0.5	121.89	–
523.15 K, 5043 kPa, x1 = 0.2	175.61	–
523.15 K, 5108 kPa, x1 = 0.2	189.64	–
523.15 K, 5158 kPa, x1 = 0.8	140.3	–
523.15 K, 5206 kPa, x1 = 0.5	144.11	–
523.15 K, 5208 kPa, x1 = 0.2	220.1	–
523.15 K, 5292 kPa, x1 = 0.2	245.47	–
523.15 K, 5316 kPa, x1 = 0.9	163.95	–
523.15 K, 5328 kPa, x1 = 0.2	259.2	–
523.15 K, 5343 kPa, x1 = 0.2	262.9	–
523.15 K, 5359 kPa, x1 = 0.5	154.49	–
523.15 K, 5364 kPa, x1 = 0.2	272.36	–
523.15 K, 5370 kPa, x1 = 0.8	156.04	–
523.15 K, 5423 kPa, x1 = 0.2	290.54	–
523.15 K, 5483 kPa, x1 = 0.2	306.83	–
523.15 K, 5508 kPa, x1 = 0.2	311.06	–
523.15 K, 5518 kPa, x1 = 0.5	165.14	–
523.15 K, 5551 kPa, x1 = 0.2	318.77	–
523.15 K, 5586 kPa, x1 = 0.8	169.78	–
523.15 K, 5668 kPa, x1 = 0.8	176.03	–
523.15 K, 5707 kPa, x1 = 0.2	341.26	–
523.15 K, 5707 kPa, x1 = 0.5	182.85	–
523.15 K, 5717 kPa, x1 = 0.9	189.45	–
523.15 K, 5731 kPa, x1 = 0.2	344.05	–
523.15 K, 5763 kPa, x1 = 0.8	180.83	–
523.15 K, 5911 kPa, x1 = 0.9	202.38	–
523.15 K, 5913 kPa, x1 = 0.5	200.39	–
523.15 K, 5925 kPa, x1 = 0.8	193.16	–
523.15 K, 6011 kPa, x1 = 0.5	210.22	–
523.15 K, 6117 kPa, x1 = 0.5	224.05	–
523.15 K, 6195 kPa, x1 = 0.9	220.68	–
523.15 K, 6235 kPa, x1 = 0.5	241.5	–
523.15 K, 6236 kPa, x1 = 0.8	213.85	–
523.15 K, 6242 kPa, x1 = 0.2	378.64	–
523.15 K, 6294 kPa, x1 = 0.5	250.69	–
523.15 K, 6320 kPa, x1 = 0.8	219.62	–
523.15 K, 6339 kPa, x1 = 0.2	383.45	–
523.15 K, 6353 kPa, x1 = 0.5	259.74	–
523.15 K, 6399 kPa, x1 = 0.9	233.06	–
523.15 K, 6454 kPa, x1 = 0.9	236.53	–
523.15 K, 6480 kPa, x1 = 0.5	270.56	–
523.15 K, 6513 kPa, x1 = 0.9	240.93	–
523.15 K, 6560 kPa, x1 = 0.2	391.28	–
523.15 K, 6567 kPa, x1 = 0.9	244.24	–
523.15 K, 6580 kPa, x1 = 0.8	234.7	–
523.15 K, 6628 kPa, x1 = 0.5	282.38	–
523.15 K, 6748 kPa, x1 = 0.8	245.34	–
523.15 K, 6923 kPa, x1 = 0.5	298.67	–
523.15 K, 6963 kPa, x1 = 0.8	258.57	–
523.15 K, 7242 kPa, x1 = 0.8	272.53	–
523.15 K, 7295 kPa, x1 = 0.9	282.01	–
523.15 K, 7431 kPa, x1 = 0.5	320	–
523.15 K, 7549 kPa, x1 = 0.5	325.27	–
523.15 K, 7577 kPa, x1 = 0.2	418.71	–
523.15 K, 7600 kPa, x1 = 0.8	288.38	–
523.15 K, 7736 kPa, x1 = 0.9	301.69	–
523.15 K, 7896 kPa, x1 = 0.8	299.2	–
523.15 K, 8097 kPa, x1 = 0.5	344.56	–
523.15 K, 8118 kPa, x1 = 0.9	312.33	–
523.15 K, 8453 kPa, x1 = 0.8	315.37	–
523.15 K, 8992 kPa, x1 = 0.9	334.04	–
523.15 K, 9070 kPa, x1 = 0.5	372.89	–
523.15 K, 9148 kPa, x1 = 0.8	333.86	–
523.15 K, 9669 kPa, x1 = 0.8	345.38	–
523.15 K, 10260 kPa, x1 = 0.9	354.13	–
523.15 K, 10494 kPa, x1 = 0.5	398.14	–
523.15 K, 10826 kPa, x1 = 0.8	361.95	–
523.15 K, 11137 kPa, x1 = 0.2	470.39	–
523.15 K, 12130 kPa, x1 = 0.5	417.24	–
523.15 K, 14557 kPa, x1 = 0.5	440.97	–
523.15 K, 15550 kPa, x1 = 0.9	407.31	–
523.15 K, 15764 kPa, x1 = 0.5	451.29	–
523.15 K, 16344 kPa, x1 = 0.8	418.23	–
523.15 K, 16569 kPa, x1 = 0.2	509.61	–
523.15 K, 19192 kPa, x1 = 0.5	468.18	–
523.15 K, 25897 kPa, x1 = 0.2	547.05	–
523.15 K, 26649 kPa, x1 = 0.8	466.73	–
523.15 K, 33702 kPa, x1 = 0.5	519.37	–
523.15 K, 36508 kPa, x1 = 0.8	496.15	–
523.15 K, 39812 kPa, x1 = 0.2	581.35	–
533.15 K, 1342 kPa, x1 = 0.8	–	22.51
533.15 K, 1590 kPa, x1 = 0.2	–	24.92
533.15 K, 2034 kPa, x1 = 0.8	–	36.67
533.15 K, 2979 kPa, x1 = 0.8	–	58.39
533.15 K, 3245 kPa, x1 = 0.2	–	52.98
533.15 K, 3545 kPa, x1 = 0.8	–	73.76
533.15 K, 3768 kPa, x1 = 0.9	83.34	–
533.15 K, 4255 kPa, x1 = 0.2	–	91.37
533.15 K, 4552 kPa, x1 = 0.8	106.35	–
533.15 K, 4745 kPa, x1 = 0.2	–	114.3
533.15 K, 4839 kPa, x1 = 0.9	123.29	–
533.15 K, 5078 kPa, x1 = 0.9	134.05	–
533.15 K, 5281 kPa, x1 = 0.2	150.27	–
533.15 K, 5454 kPa, x1 = 0.8	140.24	–
533.15 K, 5541 kPa, x1 = 0.2	175.53	–
533.15 K, 5638 kPa, x1 = 0.2	189.54	–
533.15 K, 5660 kPa, x1 = 0.9	163.88	–
533.15 K, 5720 kPa, x1 = 0.8	155.97	–
533.15 K, 5833 kPa, x1 = 0.2	219.99	–
533.15 K, 5973 kPa, x1 = 0.8	169.7	–
533.15 K, 5993 kPa, x1 = 0.2	245.35	–
533.15 K, 6071 kPa, x1 = 0.8	175.94	–
533.15 K, 6078 kPa, x1 = 0.2	259.07	–
533.15 K, 6109 kPa, x1 = 0.2	262.77	–
533.15 K, 6137 kPa, x1 = 0.9	189.36	–
533.15 K, 6162 kPa, x1 = 0.2	272.22	–
533.15 K, 6177 kPa, x1 = 0.8	180.74	–
533.15 K, 6285 kPa, x1 = 0.2	290.39	–
533.15 K, 6384 kPa, x1 = 0.8	193.07	–
533.15 K, 6395 kPa, x1 = 0.9	202.28	–
533.15 K, 6426 kPa, x1 = 0.2	306.67	–
533.15 K, 6463 kPa, x1 = 0.2	310.9	–
533.15 K, 6550 kPa, x1 = 0.2	318.61	–
533.15 K, 6727 kPa, x1 = 0.9	220.58	–
533.15 K, 6761 kPa, x1 = 0.8	213.75	–
533.15 K, 6844 kPa, x1 = 0.2	341.09	–
533.15 K, 6859 kPa, x1 = 0.8	219.51	–
533.15 K, 6879 kPa, x1 = 0.2	343.88	–
533.15 K, 6955 kPa, x1 = 0.9	232.95	–
533.15 K, 7014 kPa, x1 = 0.9	236.41	–
533.15 K, 7092 kPa, x1 = 0.9	240.81	–
533.15 K, 7159 kPa, x1 = 0.9	244.12	–
